Each structure is given as a SMILES string.

This assay addresses T1, PAR-2 (Homo sapiens, UniProt P55085).
T1 construct: Human embryonic kidney 293 cells (HEK293) endogenously expressing PAR-2; endogenous in cells; host or cells: HEK293
T1 sequence (P55085 26-397): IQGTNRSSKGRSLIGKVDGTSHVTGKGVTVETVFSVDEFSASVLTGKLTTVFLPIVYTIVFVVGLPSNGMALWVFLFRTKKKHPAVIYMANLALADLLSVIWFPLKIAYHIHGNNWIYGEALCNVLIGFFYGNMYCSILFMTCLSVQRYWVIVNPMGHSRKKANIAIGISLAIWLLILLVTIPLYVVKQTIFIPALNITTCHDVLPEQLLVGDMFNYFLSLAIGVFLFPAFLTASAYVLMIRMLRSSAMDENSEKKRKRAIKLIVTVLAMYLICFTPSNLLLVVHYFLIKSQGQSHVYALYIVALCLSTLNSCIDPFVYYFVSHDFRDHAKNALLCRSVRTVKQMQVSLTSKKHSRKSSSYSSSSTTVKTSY
Kind of assay: Cell-based calcium assay (Fluo-4 AM) for PAR-2 antagonists, SLIGRL-evoked signal. The following applies: in the presence of 2 μM SLIGRL, HEK293 cells; read-out: IC50 of PAR-2 antagonism (inhibition of SLIGRL induced PAR-2 activation). The procedure: Cell-based calcium assay for the identification of PAR-2 antagonists based on fluorescent dye Fluo4-AM
Functional modulation of PAR-2 by the tested compounds was measured and quantified using the calcium sensitive fluorescent probe Fluo-4 AM on a fluorescence microplate reader. Activation of PAR-2 by an agonist (SLIGRL) led to an increase in the intracellular calcium concentration and thus an increase in fluorescence intensity.
Human embryonic kidney 293 cells (HEK293) endogenously expressing PAR-2 were cultured in DMEM (high glucose) supplemented with tetracycline-free FCS (10% v/v), L-glutamine (4 mM), blasticidin (15 μg/ml), zeocin (100 μg/ml) and puromycin (2 μg/ml) in a water-saturated atmosphere at 37° C. and 5% CO2.
Cells were seeded onto 96-well clear-bottom black-walled assay plates at a density of 45,000 cells per well in 100 μl of cell culture medium. Intracellular calcium increase in the living cells due to receptor activation was monitored 24 h later using the calcium sensitive fluorescent probe Fluo-4 AM on a fluorescence microplate reader (FlexStation® system, Molecular Devices). Therefore 100 μl Krebs-HEPES (KH) buffer (118 mM NaCl; 4.7 mM KCl; 1.3 mM CaCl2; 1.2 mM MgSO4; 1.2 mM KH2PO4; 4.2 mM NaHCO3; 10 mM Hepes, pH 7.4) supplemented with sulfinpyrazone (250 μM) and Fluo-4 AM (4 μM) were added and the cells were incubated for an additional hour in a water-saturated atmosphere at 37° C. and 5% CO2.
Medium was replaced with 150 μl KH buffer supplemented with sulfinpyrazone (250 μM). Subsequently, 50 μl KH buffer supplemented with the screening compounds (final concentration of 10 μM under measurement conditions) or control substances were added and the cells were incubated for 10 min. under assay conditions in the microplate reader. Changes in fluorescence were recorded at 37° C. after addition of 50 μl KH buffer supplemented with the PAR-2 peptide agonist SLIGRL (final concentration of 2 μM under measurement conditions).
Calcium mobilization was quantified as the change of peak fluorescence (ΔF) over the baseline level (F). The data was analyzed with the software of the microplate reader. Potential PAR-2 antagonists were tested in an effective range of 1-100 μM for their capacity to reduce the SLIGRL-evoked signal.
A cellular in vitro assay was developed with human embryonic kidney 293 cells (HEK293) endogenously expressing PAR-2. The PAR-2 activating peptide SLIGRL (EC50: ˜0.6 μM) was used as an agonistic stimulus with subsequent Fluo-4 dependent intracellular calcium detection (calcium imaging).
On to `COc1cc(/C=C/C(=O)CC(=O)/C=C/c2ccc(O)c(OC)c2)ccc1O` [formula 8, 1,7-Bis-(4-hydroxy-3-methoxyphenyl)-hepta-1,6-dien-3,5-dione], for which the IC50 lay in the range of 25 to 100 µM.
The figure for `COc1cc(CCC(=O)CC(=O)CCc2ccc(O)c(OC)c2)ccc1O` [formula 4, 1,7-Bis-(4-hydroxy-3-methoxyphenyl)-3,5-heptanedione] is 25 to 100 µM; for `COc1ccc(CCC(=O)CC(=O)CCc2ccc(OC)cc2)cc1` [formula 3, 1,7-Bis-(4-methoxyphenyl)-3,5-heptanedione] it is 67.8 µM.
For `COc1ccc(/C=C/C(=O)CC(=O)/C=C/c2ccc(OC)cc2)cc1` [formula 7, 1,7-Bis-(4-methoxyphenyl)-hepta-1,6-dien-3,5-dione], the half-maximal inhibitory concentration (IC50) was 25 to 100 µM.

Broadly, the IC50 is the midpoint of a concentration-inhibition curve.

These data come from patent publication US20160008297A1, “COMPOUNDS FOR PREVENTING, REDUCING AND/OR ALLEVIATING ITCHY SKIN CONDITION(S)” (B.R.A.I.N. Biotechnology Research And Information Network AG, priority 2012, published 2016).
